Measured values from patent US11400058B2, “Intravenous formulations of coenzyme Q10 (CoQ10) and methods of use thereof” (Berg LLC, priority 2010, dated 2022).
Marks after values point to notes of the source that are not given here.

Assay: 4-week repeat-dose toxicology study in rats with 2-week recovery (Study 20000328)
[1] = 125 mg/kg M, end of dosing, animals affected
[2] = 125 mg/kg M, end of dosing, animals of 10
[3] = 125 mg/kg M, end of recovery, animals of 5
[4] = 250 mg/kg F, end of dosing, animals of 10

**Q.** What does the source list for `COC1=C(OC)C(=O)C(C/C=C(\C)CC/C=C(\C)CC/C=C(\C)CC/C=C(\C)CC/C=C(\C)CC/C=C(\C)CC/C=C(\C)CC/C=C(\C)CC/C=C(\C)CCC=C(C)C)=C(C)C1=O` [CoQ10, Coenzyme Q10]?
**A.** Erythrocytes (125 mg/kg M, end of dosing): 7.59* 10^6/cmm; Food Consumption, percent difference from controls (125 mg/kg M, end of dosing): −9.2* %; GGT (125 mg/kg M, end of dosing): 0.09 IU/L; Hematocrit (125 mg/kg M, end of dosing): 41.6* %; Hemoglobin (125 mg/kg M, end of dosing): 14.3 g/dL; Leukocytes (125 mg/kg M, end of dosing): 11.03 10^3/cmm; Liver weight (absolute), percent difference from controls (125 mg/kg M, end of dosing): −7.2%; Lymphocytes (125 mg/kg M, end of dosing): 8.70* 10^3/cmm; Neutrophils (125 mg/kg M, end of dosing): 1.71 10^3/cmm; Spleen weight (absolute), percent difference from controls (125 mg/kg M, end of dosing): −23.4%; Injection Site Mononuclear Cell Infiltration [1]: 1; Injection Site Mononuclear Cell Infiltration, Marked [1]: 1; Injection Site Mononuclear Cell Infiltration, Mild [1]: 0; Injection Site Mononuclear Cell Infiltration, Minimal [1]: 0; Injection Site Mononuclear Cell Infiltration, Moderate [1]: 0; Bone Marrow, Sternum Hyperplasia [2]: 2; Bone Marrow, Sternum Hyperplasia, Mild [2]: 0; Bone Marrow, Sternum Hyperplasia, Minimal [2]: 2; Gross Pathology: Enlarged Pancreatic Lymph Nodes [2]: 1; Gross Pathology: Pale Adrenal [2]: 0; Gross Pathology: Pale Liver [2]: 9; Gross Pathology: Pale Lymph Nodes [2]: 4; Gross Pathology: Pale Pituitary [2]: 0; Gross Pathology: Pale SQ Skin [2]: 1; Liver Focal Necrosis [2]: 0; Liver Focal Necrosis, Minimal [2]: 0; Liver Histiocytic Infiltration [2]: 6; Liver Histiocytic Infiltration, Mild [2]: 3; Liver Histiocytic Infiltration, Minimal [2]: 3; Liver Histiocytic Infiltration, Moderate [2]: 0; Liver Vacuolation [2]: 8; Liver Vacuolation, Mild [2]: 4; Liver Vacuolation, Minimal [2]: 4; Lymph Node, Man. Histiocytic Infiltration [2]: 7; Lymph Node, Man. Histiocytic Infiltration, Mild [2]: 4; Lymph Node, Man. Histiocytic Infiltration, Minimal [2]: 3; Lymph Node, Man. Histiocytic Infiltration, Moderate [2]: 0; Lymph Node, Mes. Histiocytic Infiltration [2]: 10; Lymph Node, Mes. Histiocytic Infiltration, Mild [2]: 6; Lymph Node, Mes. Histiocytic Infiltration, Minimal [2]: 4; Lymph Node, Mes. Histiocytic Infiltration, Moderate [2]: 0; Skin, Dermis Histiocytic Infiltration [2]: 1; Skin, Dermis Histiocytic Infiltration, Marked [2]: 1; Skin, Dermis Histiocytic Infiltration, Mild [2]: 0; Skin, Dermis Histiocytic Infiltration, Moderate [2]: 0; Skin, SQ Histiocytic Infiltration [2]: 0; Skin, SQ Histiocytic Infiltration, Mild [2]: 0; Spleen Histiocytic Infiltration [2]: 8; Spleen Histiocytic Infiltration, Marked [2]: 0; Spleen Histiocytic Infiltration, Mild [2]: 5; Spleen Histiocytic Infiltration, Moderate [2]: 3; ALT (125 mg/kg M, end of recovery): 27 IU/L; APPT (125 mg/kg M, end of recovery): 15.9* seconds; AST (125 mg/kg M, end of recovery): 94 IU/L; Body Weight, percent difference from controls (125 mg/kg M, end of recovery): −2.2%; Food Consumption, percent difference from controls (125 mg/kg M, end of recovery): +1.2%; GGT (125 mg/kg M, end of recovery): 0.00 IU/L; Liver weight (absolute), percent difference from controls (125 mg/kg M, end of recovery): −2.5%; Spleen weight (absolute), percent difference from controls (125 mg/kg M, end of recovery): +5.9%; Adrenal Gland Vacuolation [3]: 5; Adrenal Gland Vacuolation, Marked [3]: 0; Adrenal Gland Vacuolation, Mild [3]: 2; Adrenal Gland Vacuolation, Minimal [3]: 0; Adrenal Gland Vacuolation, Moderate [3]: 3; Gross Pathology: Enlarged Spleen [3]: 1; Gross Pathology: Pale Iliac Lymph Node [3]: 2; Gross Pathology: Pale Liver [3]: 5; Gross Pathology: Pale Pancreatic Lymph Node [3]: 2; Liver Focal Necrosis [3]: 3; Liver Focal Necrosis, Mild [3]: 1; Liver Focal Necrosis, Minimal [3]: 2; Liver Histiocytic Infiltration [3]: 5; Liver Histiocytic Infiltration, Mild [3]: 1; Liver Histiocytic Infiltration, Minimal [3]: 4; Liver Histiocytic Infiltration, Moderate [3]: 0; Liver Multifocal Necrosis [3]: 0; Liver Multifocal Necrosis, Mild [3]: 0; Liver Multifocal Necrosis, Moderate [3]: 0; Liver Vacuolation [3]: 5; Liver Vacuolation, Mild [3]: 4; Liver Vacuolation, Minimal [3]: 1; Liver Vacuolation, Moderate [3]: 0; Lymph Node, Man. Histiocytic Infiltration [3]: 5; Lymph Node, Man. Histiocytic Infiltration, Mild [3]: 2; Lymph Node, Man. Histiocytic Infiltration, Minimal [3]: 3; Lymph Node, Man. Histiocytic Infiltration, Moderate [3]: 0; Lymph Node, Mes. Histiocytic Infiltration [3]: 5; Lymph Node, Mes. Histiocytic Infiltration, Mild [3]: 1; Lymph Node, Mes. Histiocytic Infiltration, Minimal [3]: 3; Spleen Histiocytic Infiltration [3]: 3; Spleen Histiocytic Infiltration, Marked [3]: 0; Spleen Histiocytic Infiltration, Mild [3]: 1; Spleen Histiocytic Infiltration, Minimal [3]: 2; Spleen Histiocytic Infiltration, Moderate [3]: 0; Died or Sacrificed Moribund (250 mg/kg F, animals of 15): 0; ALT (250 mg/kg F, end of dosing): 22 IU/L; APPT (250 mg/kg F, end of dosing): 14.5* seconds; AST (250 mg/kg F, end of dosing): 88 IU/L; Body Weight, percent difference from controls (250 mg/kg F, end of dosing): −8.9* %; Eosinophils (250 mg/kg F, end of dosing): 0.10 10^3/cmm; Erythrocytes (250 mg/kg F, end of dosing): 6.12 10^6/cmm; Food Consumption, percent difference from controls (250 mg/kg F, end of dosing): −18.3* %; GGT (250 mg/kg F, end of dosing): 0.25 IU/L; Hematocrit (250 mg/kg F, end of dosing): 39.2* %; Hemoglobin (250 mg/kg F, end of dosing): 13.2 g/dL; Leukocytes (250 mg/kg F, end of dosing): 13.15* 10^3/cmm; Liver weight (absolute), percent difference from controls (250 mg/kg F, end of dosing): +14.5* %; Lymphocytes (250 mg/kg F, end of dosing): 10.50* 10^3/cmm; Neutrophils (250 mg/kg F, end of dosing): 1.97* 10^3/cmm; Spleen weight (absolute), percent difference from controls (250 mg/kg F, end of dosing): +51.0* %; Adrenal Gland Vacuolation [4]: 10; Adrenal Gland Vacuolation, Mild [4]: 3; Adrenal Gland Vacuolation, Minimal [4]: 0; Adrenal Gland Vacuolation, Moderate [4]: 7; Bone Marrow, Sternum Hyperplasia [4]: 0; Bone Marrow, Sternum Hyperplasia, Mild [4]: 0; Bone Marrow, Sternum Hyperplasia, Minimal [4]: 0; Gross Pathology: Enlarged Pancreatic Lymph Nodes [4]: 1; Gross Pathology: Pale Adrenal [4]: 2; Gross Pathology: Pale Liver [4]: 10; Gross Pathology: Pale Lymph Nodes [4]: 7; Gross Pathology: Pale Ovaries [4]: 9; Gross Pathology: Pale Pituitary [4]: 0; Gross Pathology: Pale SQ Skin [4]: 4; Injection Site Mononuclear Cell Infiltration [4]: 10; Injection Site Mononuclear Cell Infiltration, Marked [4]: 2; Injection Site Mononuclear Cell Infiltration, Mild [4]: 1; Injection Site Mononuclear Cell Infiltration, Minimal [4]: 0; Injection Site Mononuclear Cell Infiltration, Moderate [4]: 7; Liver Focal Necrosis [4]: 0; Liver Focal Necrosis, Minimal [4]: 0; Liver Histiocytic Infiltration [4]: 9; Liver Histiocytic Infiltration, Mild [4]: 5; Liver Histiocytic Infiltration, Minimal [4]: 4; Liver Histiocytic Infiltration, Moderate [4]: 0; Liver Vacuolation [4]: 10; Liver Vacuolation, Mild [4]: 10; Liver Vacuolation, Minimal [4]: 0; Lymph Node, Man. Histiocytic Infiltration [4]: 9; Lymph Node, Man. Histiocytic Infiltration, Mild [4]: 1; Lymph Node, Man. Histiocytic Infiltration, Minimal [4]: 7; Lymph Node, Man. Histiocytic Infiltration, Moderate [4]: 1; Lymph Node, Mes. Histiocytic Infiltration [4]: 9; Lymph Node, Mes. Histiocytic Infiltration, Mild [4]: 4; Lymph Node, Mes. Histiocytic Infiltration, Minimal [4]: 5; Lymph Node, Mes. Histiocytic Infiltration, Moderate [4]: 0; Ovary Histiocytic Infiltration [4]: 10; Ovary Histiocytic Infiltration, Mild [4]: 6; Ovary Histiocytic Infiltration, Minimal [4]: 0; Ovary Histiocytic Infiltration, Moderate [4]: 4; Skin, Dermis Histiocytic Infiltration [4]: 2; Skin, Dermis Histiocytic Infiltration, Marked [4]: 0; Skin, Dermis Histiocytic Infiltration, Mild [4]: 0; Skin, Dermis Histiocytic Infiltration, Moderate [4]: 2; Skin, SQ Histiocytic Infiltration [4]: 0; Skin, SQ Histiocytic Infiltration, Mild [4]: 0
